The results in this text go back to ChEMBL document CHEMBL5241069, “A key review on oxadiazole analogs as potential methicillin-resistant Staphylococcus aureus (MRSA) activity: Structure-activity relationship studies” (Eur J Med Chem, 2021).

The subject of assay [1] is Staphylococcus aureus. Briefly: Antibacterial activity methicillin resistant Staphylococcus aureus 2658 RCMB assessed as inhibition of bacterial growth by broth microdilution method. The format is functional. Background: In broth dilution the organism is exposed to a series of concentrations in liquid medium.
Assay [2] has as its system Staphylococcus aureus. Briefly: Antibacterial activity against methicillin resistant Staphylococcus aureus MW2 assessed as inhibition of bacterial growth incubated for 16 to 20 hrs by CLSI protocol based Mueller-Hinton broth method. The class given is functional. The settings on record: time 16-20 hrs.
Assay [3] deals with Staphylococcus aureus. Briefly: Antibacterial activity against methicillin resistant Staphylococcus aureus USA300 assessed as inhibition of bacterial growth incubated for 16 to 20 hrs by CLSI protocol based Mueller-Hinton broth method. The format is functional. The settings on record: time 16-20 hrs.
The test system of assay [4] is Staphylococcus aureus. In words: Antimicrobial activity against methicillin resistant Staphylococcus aureus 2658 RCMB assessed as inhibition of bacterial growth incubated for 20 hrs by CLSI protocol based broth microdilution method. The format is functional.
In assay [5] the test system is Staphylococcus aureus. Briefly: Antimicrobial activity against methicillin resistant Staphylococcus aureus 1 assessed as inhibition of bacterial growth incubated for 16 to 20 hrs by CLSI protocol based Muller-Hinton broth method. The class given is functional. The settings on record: time 16-20 hrs.
Assay [6] has as its system Staphylococcus aureus. In words: Antimicrobial activity against methicillin resistant Staphylococcus aureus 2 assessed as inhibition of bacterial growth incubated for 16 to 20 hrs by CLSI protocol based Muller-Hinton broth method. The format is functional. The settings on record: time 16-20 hrs.
The test system of assay [7] is Staphylococcus aureus. Briefly: Antimicrobial activity against methicillin resistant Staphylococcus aureus 3 assessed as inhibition of bacterial growth incubated for 16 to 20 hrs by CLSI protocol based Muller-Hinton broth method. The class given is functional. The settings on record: time 16-20 hrs.
Assay [8] has as its system Staphylococcus aureus. In words: Antibacterial activity against methicillin resistant Staphylococcus aureus assessed as inhibition zone by CLSI protocol based agar disc diffusion method. The format is functional. (Agar diffusion results depend on both activity and mobility in agar.)
The subject of assay [9] is Staphylococcus aureus. In words: Antibacterial activity against methicillin resistant Staphylococcus aureus ATCC 33592 incubated for 24 hrs by Mueller-Hinton broth based assay. The format is functional.
Assay [10] has as its system Staphylococcus aureus. Briefly: Antimicrobial activity against methicillin resistant Staphylococcus aureus USA300 assessed as inhibition of bacterial growth incubated for 16 to 20 hrs by CLSI protocol based method. As to conditions: time 16-20 hrs. The format is functional.
In assay [11] the test system is Staphylococcus aureus. In words: Antimicrobial activity against Staphylococcus aureus Newman assessed as inhibition of bacterial growth incubated for 16 to 20 hrs by CLSI protocol based method. The format is functional. The settings on record: time 16-20 hrs.
Assay [12] concerns Staphylococcus aureus. In words: Antimicrobial activity against methicillin resistant Staphylococcus aureus A252 assessed as inhibition of bacterial growth incubated for 16 to 20 hrs by CLSI protocol based method. The format is functional. As to conditions: time 16-20 hrs.
For assay [13], the system named is Staphylococcus aureus. Briefly: microbe, parasite or virus in culture. As to conditions: 032.
Description: Antibacterial activity against methicillin resistant Staphylococcus aureus 032 assessed as inhibition of bacterial growth by CLSI protocol based serial dilution method
Assay [14] concerns Staphylococcus aureus. Briefly: Antibacterial activity against methicillin resistant Staphylococcus aureus ATCC 43300 assessed as inhibition of bacterial growth incubated for 24 to 48 hrs by spectrophotometric analysis. The format is functional. The settings on record: time 24-48 hrs.
Assay [15] has as its system Staphylococcus aureus. In words: Antibacterial activity against methicillin resistant Staphylococcus aureus MTCC 84 incubated for 24 hrs by serial dilution method. The format is functional.
In assay [16] the test system is Staphylococcus aureus. Briefly: Antibacterial activity against methicillin resistant Staphylococcus aureus incubated for 24 hrs by broth microdilution method. The format is functional.
For assay [17], the system named is Staphylococcus aureus. Briefly: Antibiofilm activity against methicillin resistant Staphylococcus aureus ATCC 43866 assessed as inhibition of biofilm formation incubated for 18 to 24 hrs by tissue culture plate method. The format is functional. The settings on record: time 18-24 hrs.
Assay [18] concerns Staphylococcus aureus. Briefly: Antibacterial activity against methicillin resistant Staphylococcus aureus 42 assessed as inhibition of bacterial growth. The format is functional.
In assay [19] the test system is Staphylococcus aureus. In words: Antibacterial activity against methicillin resistant Staphylococcus aureus 128 assessed as inhibition of bacterial growth. The class given is functional.
Assay [20] relates to Staphylococcus aureus. Briefly: Antibacterial activity against methicillin resistant Staphylococcus aureus 181 assessed as inhibition of bacterial growth. The class given is functional.
Assay [21] relates to Staphylococcus aureus. In words: Antibacterial activity against methicillin resistant Staphylococcus aureus 747 assessed as inhibition of bacterial growth. The class given is functional.

Each structure is given as a SMILES string. In brackets after ≈: the same amount, converted by molar mass.

With `Cc1nc(-c2ccc(C(C)(C)C)cc2)sc1-c1nnc(NN)o1`, the MIC in [1] stood at 6.25 µg/mL (≈ 19 µM).

On to `Cc1nc(-c2ccc(C(C)(C)C)cc2)sc1-c1nnc(NC(=N)N2CCN(C)CC2)o1`, for which, in [1], the MIC came out at 25 µg/mL (≈ 56.9 µM).

The MBC is the smallest concentration meeting the test's criterion for killing. Regarding `COc1cc(OC)cc(-c2nnc(NC(=O)c3ccc(S(=O)(=O)C4COCC4(C)C)cc3)o2)c1` (configuration not stated), the MBC in assay [2] was found to be 16 µg/mL (≈ 32.8 µM); in assay [3] it was 8 µg/mL (≈ 16.4 µM).

For `Cc1nc(-c2ccc3ccccc3c2)sc1-c1nnc(NN)o1`, the MIC in assay [4] turned out to be 3.9 µg/mL (≈ 12.1 µM).

`CNC(=N)Nc1nnc(-c2sc(-c3ccc4ccccc4c3)nc2C)o1`: the MIC in assay [4] came out at 3.9 µg/mL (≈ 10.7 µM).

For `CCn1cc(C(=O)O)c(=O)c2cc(F)c(N3CCN(Cc4nnc(-c5ccc(C#N)cc5)o4)CC3)cc21`, the MIC was 1 µg/mL (≈ 1.99 µM) in assay [5], 1 µg/mL (≈ 1.99 µM) in assay [6] and 2 µg/mL (≈ 3.98 µM) in assay [7].

On to `Cc1nc(-c2ccc(C(C)(C)C)cc2)sc1-c1nnc(NC(=N)c2ccccn2)o1`, for which, in [1], the MIC is > 50 µg/mL.

For `CCn1cc(C(=O)O)c(=O)c2cc(F)c(N3CCN(Cc4nnc(-c5ccccc5Cl)o4)CC3)cc21`, the MIC in assay [5] was found to be 0.5 µg/mL (≈ 0.977 µM); in assay [6], 1 µg/mL (≈ 1.95 µM); in assay [7], 1 µg/mL (≈ 1.95 µM).

As for `Cc1nc(-c2ccc3ccccc3c2)sc1-c1nnc(NC(=N)N)o1`, in assay [4], the MIC was 1.95 µg/mL (≈ 5.56 µM).

Consider `O=P(Oc1ccccc1)(Oc1ccccc1)C(Nc1nnc(-c2cccc(Br)n2)o1)c1ccc(Cl)c(F)c1` (configuration not stated), for which the “inhibition zone (IZ)” value in assay [8] turned out to be 17 mm.

In assay [9], `C[C@@H]1C[C@H](C)CN(S(=O)(=O)c2ccc(C(=O)Nc3nnc(-c4ccc(C(F)(F)F)cc4)o3)cc2)C1` registered an MIC of 0.25 µg/mL (≈ 0.492 µM).

Take `Cc1nc(-c2ccc(C(C)(C)C)cc2)sc1-c1nnc(NC(=N)c2cccnc2)o1`: the MIC in [1] was > 50 µg/mL.

Turning to `O=C(Nc1nnc(-c2ccc(F)cc2)o1)c1ccc(Cl)cc1`, the MIC was found to be 0.64 µg/mL (≈ 2.01 µM) in assay [10], 1.28 µg/mL (≈ 4.03 µM) in assay [11] and 1.28 µg/mL (≈ 4.03 µM) in assay [12].

In the case of `CC1(C)S[C@@H]2[C@H](NC(=O)[C@H](N)c3ccccc3)C(=O)N2[C@H]1C(=O)O` [AMPICILLIN], in assay [13], the MIC was > 32 µg/mL.

In assay [9], `Cc1cc(C(=O)Nc2nnc(-c3ccc(C(F)(F)F)cc3)o2)ccc1S(=O)(=O)N1C[C@H](C)C[C@H](C)C1` had an MIC of 11 µg/mL (≈ 21.1 µM).

For `CCn1cc(C(=O)O)c(=O)c2cc(F)c(N3CCN(Cc4nnc(-c5cccc(C)c5)o4)CC3)cc21`, the results for the MIC in assay [5], in assay [6] and in assay [7] were 1 µg/mL (≈ 2.03 µM), 1 µg/mL (≈ 2.03 µM) and 2 µg/mL (≈ 4.07 µM), respectively.

For the molecule `Cc1nc(-c2ccc(C(C)(C)C)cc2)sc1-c1nnc(NC(=N)c2ccncc2)o1`, the MIC in assay [1] was > 50 µg/mL.

With `O=C(/C=C/c1ccc([N+](=O)[O-])cc1)N1N=C(c2ccncc2)OC1c1cn(-c2ccccc2)nc1-c1ccc(F)cc1` (configuration not stated), the MIC in assay [14] is 12.5 µg/mL (≈ 22.3 µM).

In [15], `Cc1ccc(OCc2nnco2)c(C(=O)c2cccc(Cl)c2)c1` showed an MIC of 62.5 µg/mL (≈ 190 µM).

For `O=P(Oc1ccccc1)(Oc1ccccc1)C(Nc1nnc(-c2cccc(Br)n2)o1)c1ccc(F)c(Cl)c1` (configuration not stated), the “inhibition zone (IZ)” value in assay [8] came to 17 mm.

For the molecule `Nc1scc(-c2ccc(F)cc2)c1-c1nnc(S)o1`, the MIC in [16] was found to be 8 µg/mL (≈ 27.3 µM).

For `CN[C@H](CC(C)C)C(=O)N[C@H]1C(=O)N[C@@H](CC(N)=O)C(=O)N[C@H]2C(=O)N[C@H]3C(=O)N[C@H](C(=O)N[C@H](C(=O)O)c4cc(O)cc(O)c4-c4cc3ccc4O)[C@H](O)c3ccc(c(Cl)c3)Oc3cc2cc(c3O[C@@H]2O[C@H](CO)[C@@H](O)[C@H](O)[C@H]2O[C@H]2C[C@](C)(N)[C@H](O)[C@H](C)O2)Oc2ccc(cc2Cl)[C@H]1O` [VANCOMYCIN], the MIC in [4] was 1.95 µg/mL (≈ 1.35 µM); in [17] it was 6.25 µg/mL (≈ 4.31 µM); in assay [18], 13.1 µg/mL (≈ 9.04 µM); in assay [19] it was 20.7 µg/mL (≈ 14.3 µM); in assay [20] it was 20.3 µg/mL (≈ 14 µM); in assay [21] it was 21.6 µg/mL (≈ 14.9 µM).

For the molecule `Cc1nc(/C(=C\c2coc3ccc(Cl)cc3c2=O)c2ccc([N+](=O)[O-])cc2)no1`, the MIC in [13] is > 32 µg/mL.
